Experimental data as given in patent US20260234215A1, “Anti-Inflammatory Bio-Active Collagen Hybridizing Peptides and Methods of Using Thereof” (3HELIX, INC., priority 2023, published 2026).

Tested on: Jurkat T-Cells (E6-1 from ATCC)
Assay: In vitro T-cell activation/inhibition assay (anti-CD3/anti-CD28 stimulation, IL-2 ELISA)
Assay type: cell-based, human
Settings: 37° C., CHP 100 μM with gelatin 0.5 mg/mL
Protocol: A particular in vitro activation assay was carried out to evaluate the effects that the anti-inflammatory bioactive LAIR-1 CHPs have on T-cells. Details regarding the experimental conditions for the T-cell assay with Jukat T-cells are depicted in FIG. 13. As shown, Jukat T-cells were incubated with activating antibodies against CD3 and CD28 receptors to initiate activation. […] T-cell activation was then assessed by ELISA for IL-2 secretion in media supernatant. Activated T-cells express high levels of IL-2.
Secreted IL-2 was measured for the following conditions: negative control which were unactivated T cells; positive control T cells which received anti-CD3 and anti-CD28 antibodies; positive control t cells which received stimulating antibodies in the presence of soluble gelatin; and the CHP test condition which received stimulating antibodies in the presence of LAIR1-CHPs.
For the T-cell activation/inhibition experimental protocol, three monomeric CHPs (LAIR-1 HTm CHP1 [SEQ ID NO: 87, wherein x=4 and y=4], LAIR-1 HTm CHP2 [SEQ ID NO: 2, wherein x=4 and y=4], and LAIR-1 HTm CHP3 [SEQ ID NO: 106]) were tested for T-cell activation/inhibition. First, CHPs were incubated with the gelatin under test conditions for at least 24 hours at 37° C. The final gelatin concentration in the media for incubation was 0.5 mg/mL. […]

With Biotin-GGG-(GPO)9 [LAIR-1 HTm CHP3] the “effect on IL 2 production compared to the gelatin positive control” value (72 hours post-stimulation) was “did not have an effect” and the “effect on IL 2 production compared to the gelatin positive control” value (96 hours post-stimulation) was “did not have an effect”.
